According to patent US20090011400A1, “Substrate switched ammonia lyases and mutases” (The Salk Institute for Biological Studies and The Regents …, priority 2006, published 2009):
Changes are numbered by the printed parent chain.

How the values were obtained:
wild type RsTAL = target: T1, wild type RsTAL (Cereibacter sphaeroides, UniProt Q3IWB0); test: Inhibition of enzyme activity by AIP, wild type RsTAL; assay type: biochemical, Rhodobacter sphaeroides
T1 construct: only residues 1 to 7 and the C-terminal residue 523 of each of the eight RsTAL monomers are poorly ordered; His8 (octahistidine), thrombin-cleavable (N, cleaved yes); made in house; host or cells: E. coli BL21(DE3)
T1 sequence (Q3IWB0 1-523): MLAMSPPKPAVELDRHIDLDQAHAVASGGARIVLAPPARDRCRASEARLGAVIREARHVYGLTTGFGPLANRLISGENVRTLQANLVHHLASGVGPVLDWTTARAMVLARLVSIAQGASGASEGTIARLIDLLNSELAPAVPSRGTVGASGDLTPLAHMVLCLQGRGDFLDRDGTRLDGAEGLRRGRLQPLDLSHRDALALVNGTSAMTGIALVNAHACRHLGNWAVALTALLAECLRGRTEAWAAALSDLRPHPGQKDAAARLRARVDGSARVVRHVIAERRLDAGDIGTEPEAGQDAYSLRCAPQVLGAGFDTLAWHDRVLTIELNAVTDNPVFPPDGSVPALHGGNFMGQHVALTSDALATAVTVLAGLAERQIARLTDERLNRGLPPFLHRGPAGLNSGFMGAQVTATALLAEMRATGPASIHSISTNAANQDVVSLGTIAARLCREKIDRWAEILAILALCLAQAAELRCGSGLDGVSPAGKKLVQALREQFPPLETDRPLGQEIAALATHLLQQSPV
Protocol: (§1) The inhibition of enzyme activity by AIP was measured with a similar assay system, except that the enzyme was pre-incubated for 7 min in the presence of fixed concentrations of AIP. Inhibition of PAL activity of wild type RsTAL was measured with 15 μg protein, six AIP concentrations between 0 and 20 μM, and initial L-Phe concentrations between 9.6 and 25.6 mM. Inhibition of PAL activity of the H89F mutant was measured with 10 μg protein, five AIP concentrations between 0 and 5 μM, with initial L-Phe concentrations between 0.4 and 1.6 mM. Duplicate sets of enzyme assays were performed and a Dixon plot was used for the estimation of the AIP inhibition constant, Ki. AIP was a gift from Dr. Jerzy Zon, Wroclaw University, Poland.

H89F RsTAL = target: T2, H89F RsTAL (Cereibacter sphaeroides, UniProt Q3IWB0, H89F); test: Inhibition of PAL activity by AIP, H89F RsTAL; assay type: biochemical, Rhodobacter sphaeroides
T2 construct: mutant proteins were expressed and purified as described for wild type RsTAL; His8 (octahistidine), thrombin-cleavable (N, cleaved yes); made in house; host or cells: E. coli BL21(DE3)
T2 sequence (Q3IWB0 1-523 H89F): T1 sequence (Q3IWB0 1-523) with H89F
Protocol: as §1

RsTAL = target: T3, RsTAL (Cereibacter sphaeroides, UniProt Q3IWB0); test: Crystal soaking experiments of RsTAL with ligands; assay type: binding, Rhodobacter sphaeroides; settings: wild type RsTAL crystals soaked with ligand
T3 construct: His8 (octahistidine), thrombin-cleavable (N, cleaved yes); made in house; host or cells: E. coli BL21(DE3)
T3 sequence (Q3IWB0 1-523): T1 sequence (Q3IWB0 1-523)
Protocol: Monoclinic crystals of RsTAL (space group […]) were grown from a 1:1 mixture of protein solution (20 mg/ml in 12.5 mM Tris-HCl, pH 7.5, 50 mM NaCl) and a reservoir solution (0.1 M MOPSO—Na^+, pH 7.0, 7% (w/v) polyethylene glycol 8000, 0.3 M ammonium acetate, 2 mM dithiothreitol, 35 mM cyclohexylbutanoyl-N-hydroxyethylglucamide) using vapor diffusion against reservoir solutions at 4° C. Crystal growth typically occurred over a period of one to three weeks and was expedited through microseeding. […] Crystals of RsTAL in complex with small molecule ligands were produced by soaking crystals for 24-48 hrs in reservoir solutions supplemented with 10-20 mM coumaric acid, caffeic acid, cinnamic acid or AIP.

PcPAL = PcPAL (Petroselinum crispum, UniProt P24481); settings: substrate L-Phe, read-out: AIP Ki; cited from earlier work
SmPAL = settings: substrate L-Phe, read-out: AIP Ki; cited from earlier work
[1] = target: T4, Rhodobacter sphaeroides tyrosine ammonia lyase (RsTAL) variant H89F (His89Phe) (Cereibacter sphaeroides, UniProt Q3IWB0, H89F); test: Inhibition of PAL activity of H89F RsTAL by AIP; assay type: biochemical; parameters: mutant proteins were expressed and purified as described for wild type RsTAL; octahistidine (His8), thrombin-cleavable (N, cleaved yes); made in house; host or cells: E. coli BL21(DE3)
T4 sequence (Q3IWB0 1-523 H89F): T1 sequence (Q3IWB0 1-523) with H89F
Protocol: as §1

NC1(P(=O)(O)O)Cc2ccccc2C1 [AIP, 2-aminoindan-2-phosphonate]
inhibition of RsTAL activity by AIP (in words) (wild type RsTAL; wild type RsTAL): weak inhibition | effect of AIP on activity with L-Tyr (in words) (wild type RsTAL; wild type RsTAL, substrate L-Tyr): unaffected | Ki (wild type RsTAL; wt RsTAL, substrate L-Phe, Dixon plot): 16300 nM | Ki (H89F RsTAL; H89F RsTAL, substrate L-Phe, Dixon plot): 600 nM | Ki lower than for wild type RsTAL (H89F RsTAL; H89F mutant with L-Phe versus wild type RsTAL): 27 fold | binding observed in RsTAL crystals (in words) (RsTAL): no significant binding | Ki (PcPAL): 25 nM | Ki (SmPAL): 1810 nM | Ki [1]: 600 nM
